# Reference: patent EP4458830A1, “TRICYCLIC COMPOUND, METHOD FOR PREPARING SAME, AND USE THEREOF” (Sichuan Kelun-Biotech Biopharmaceutical Co., Ltd., priority 2021, dated 2023)
# Assays:
# human TLR7 = molecular target: T1, human TLR7 (Homo sapiens, UniProt Q9NYK1); test: Agonistic activity of compounds on HEK-Blue hTLR7 cells (QUANTI-Blue reporter, OD620); type: cell-based; details: for EC50 / Emax: HEK-Blue hTLR7 cells; for EC50: 20 h incubation; for Emax: OD620 at which the activation effect reached the maximum; for activation effect on human TLR7: summary in words
# T1 construct: host or cells: HEK-Blue hTLR7 cells (HEK293-derived reporter line; that the line is stably transfected with the human TLR7 gene is own knowledge of the vendor's product)
# T1 sequence (Q9NYK1 27-1049): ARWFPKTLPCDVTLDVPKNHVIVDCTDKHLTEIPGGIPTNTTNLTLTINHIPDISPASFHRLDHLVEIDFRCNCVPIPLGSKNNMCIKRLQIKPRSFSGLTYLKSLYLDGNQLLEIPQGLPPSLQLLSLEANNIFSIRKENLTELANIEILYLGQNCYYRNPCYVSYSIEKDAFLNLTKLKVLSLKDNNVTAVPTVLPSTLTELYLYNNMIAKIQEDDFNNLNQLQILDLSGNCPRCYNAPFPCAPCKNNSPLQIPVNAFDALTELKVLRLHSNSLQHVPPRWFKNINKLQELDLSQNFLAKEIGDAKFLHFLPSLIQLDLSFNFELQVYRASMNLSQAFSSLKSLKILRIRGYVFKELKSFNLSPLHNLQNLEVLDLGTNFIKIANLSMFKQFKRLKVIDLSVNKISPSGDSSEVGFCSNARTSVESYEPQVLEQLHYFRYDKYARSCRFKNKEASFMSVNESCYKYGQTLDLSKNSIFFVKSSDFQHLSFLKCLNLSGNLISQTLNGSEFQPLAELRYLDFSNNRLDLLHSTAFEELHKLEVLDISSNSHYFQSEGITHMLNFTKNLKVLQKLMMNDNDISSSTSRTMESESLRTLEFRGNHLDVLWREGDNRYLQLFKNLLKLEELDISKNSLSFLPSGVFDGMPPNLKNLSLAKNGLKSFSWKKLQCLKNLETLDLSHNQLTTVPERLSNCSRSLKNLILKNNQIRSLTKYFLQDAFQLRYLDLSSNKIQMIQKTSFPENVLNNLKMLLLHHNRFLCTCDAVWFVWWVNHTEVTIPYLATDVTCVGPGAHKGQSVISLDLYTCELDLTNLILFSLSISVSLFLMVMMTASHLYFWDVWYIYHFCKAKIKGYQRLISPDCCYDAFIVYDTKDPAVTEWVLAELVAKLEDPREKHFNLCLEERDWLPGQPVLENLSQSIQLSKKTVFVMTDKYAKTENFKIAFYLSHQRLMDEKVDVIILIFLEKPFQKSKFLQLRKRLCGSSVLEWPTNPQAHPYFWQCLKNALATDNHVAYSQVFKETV
# Experimental: • 1. HEK-Blue hTLR7 cells (Invivogen) were cultured in DMEM medium (Hyclone) containing 10% FBS heat-inactivated fetal bovine serum (Corning). On the day of detection, the cell state was observed under a microscope, the cells were collected and resuspended, and the cell concentration was adjusted after counting, 50 µL per well, the total amount of cells was 2×10^4, and the cells were inoculated in a 96-well plate. • 2. After the cells adhered to the wall overnight, 50 µL of the test compound at different concentrations was added into the well plate, so that the final concentrations were 100 µM, 33.3 µM, 11.11 µM, 3.70 µM, 1.23 µM, 0.41 µM, 0.14 µM, 0.05 µM, 0 µM, and the final concentration of DMSO was 1%. The compound was incubated with the cells in a 37°C, 5% CO2 incubator for 20 h. • 3. After the incubation, observation under microscope was performed to determine the maximum signal well, the states of the cells with the highest and lowest concentrations of the compound, and whether the compound will crystalize at high concentration. 10 µL of cell culture supernatant was taken and transferred to a new 96-well transparent plate, 90 µL of QUANTI-Blue (Invivogen) detection reagent was added to each well, and incubated at 37°C for 3 h, and OD620 was read with a multifunctional microplate reader (BMG LABTECH). • 4. EC50 was calculated by fitting with Graphpad Prism software log(agonist) vs. response - Variable slope, and Emax was the OD620 at which the activation effect of the test compound reached the maximum.
# human TLR8 = molecular target: T2, human TLR8 (Homo sapiens, UniProt Q9NR97); test: Agonistic activity of compounds on HEK-Blue hTLR8 cells (QUANTI-Blue reporter, OD620); type: cell-based; details: for EC50 / Emax: HEK-Blue hTLR8 cells; for EC50: 20 hours incubation; for Emax: OD620 at which the activation effect reached the maximum; for activation effect on human TLR8: summary in words
# T2 construct: host or cells: HEK-Blue hTLR8 cells (HEK293-derived reporter line; that the line is stably transfected with the human TLR8 gene is own knowledge of the vendor's product)
# T2 sequence (Q9NR97 27-1041): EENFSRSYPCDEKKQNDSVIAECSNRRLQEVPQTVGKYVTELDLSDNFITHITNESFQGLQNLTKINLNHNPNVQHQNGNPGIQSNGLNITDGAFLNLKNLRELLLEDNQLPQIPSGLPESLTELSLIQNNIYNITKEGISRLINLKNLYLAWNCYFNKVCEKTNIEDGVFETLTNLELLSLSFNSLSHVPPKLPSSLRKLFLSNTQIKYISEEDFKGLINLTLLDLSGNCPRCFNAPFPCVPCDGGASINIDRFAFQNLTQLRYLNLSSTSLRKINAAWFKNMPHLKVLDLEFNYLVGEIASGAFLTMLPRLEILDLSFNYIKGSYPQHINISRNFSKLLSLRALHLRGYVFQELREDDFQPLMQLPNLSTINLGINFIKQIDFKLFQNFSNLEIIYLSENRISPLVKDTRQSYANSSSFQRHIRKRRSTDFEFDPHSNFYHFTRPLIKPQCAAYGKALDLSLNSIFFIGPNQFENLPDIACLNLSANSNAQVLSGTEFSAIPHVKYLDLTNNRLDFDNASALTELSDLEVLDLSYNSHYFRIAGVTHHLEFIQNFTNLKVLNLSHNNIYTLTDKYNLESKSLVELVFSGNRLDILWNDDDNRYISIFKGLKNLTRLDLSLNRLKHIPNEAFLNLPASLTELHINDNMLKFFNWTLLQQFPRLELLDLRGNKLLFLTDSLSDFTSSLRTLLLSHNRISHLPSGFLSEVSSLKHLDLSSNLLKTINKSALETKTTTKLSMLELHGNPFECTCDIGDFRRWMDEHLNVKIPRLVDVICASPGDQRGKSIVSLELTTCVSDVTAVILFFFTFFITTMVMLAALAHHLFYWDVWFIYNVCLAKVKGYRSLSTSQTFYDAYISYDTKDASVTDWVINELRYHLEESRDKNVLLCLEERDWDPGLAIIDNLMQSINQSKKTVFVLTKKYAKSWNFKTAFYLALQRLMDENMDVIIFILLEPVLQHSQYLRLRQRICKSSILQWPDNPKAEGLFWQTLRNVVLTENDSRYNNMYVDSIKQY
# Experimental: • 1. HEK-Blue hTLR8 cells (Invivogen) were cultured in DMEM medium (Hyclone) containing 10% FBS heat-inactivated fetal bovine serum (Corning). On the day of detection, the cell state was observed under a microscope, the cells were collected and resuspended, and the cell concentration was adjusted after counting, 50 µL per well, the total amount of cells was 2×10^4, and the cells were inoculated in a 96-well plate. • 2. After the cells adhered to the wall overnight, 50 µL of the test compound at different concentrations was added to the well plate, so that the final concentrations were 100 µM, 25 µM, 6.25 µM, 1.56 µM, 0.39 µM, 0.10 µM, 0.02 µM, 0.006 µM, 0 µM, or 100 µM, 33.3 µM, 11.11 µM, 3.70 µM, 1.23 µM, 0.41 µM, 0.14 µM, 0.05 µM, 0 µM, and the final concentration of DMSO was 1%. The compound was incubated with the cells in a 37°C, 5% CO2 incubator for 20 hours. • 3. After the incubation, observation was performed under microscope to determine the maximum signal well, the state of the cells with the highest and lowest concentrations of the compound, and whether the compound will crystalize at high concentration. 10 µL of cell culture supernatant was transferred to a new 96-well transparent plate, added with 90 µL of QUANTI-Blue (Invivogen) detection reagent to each well, incubated at 37°C for 3 hours, and OD620 was read with a multifunctional microplate reader (BMG LABTECH). • 4. EC50 was calculated by fitting with Graphpad Prism software log(agonist) vs. Response - Variable slope, and Emax was the OD620 at which the activation effect of the test compound reached the maximum.
Compound,EC50 (human TLR7) [nM],Emax (human TLR7) [OD620],activation effect on human TLR7 (human TLR7),EC50 (human TLR8) [nM],Emax (human TLR8) [OD620],activation effect on human TLR8 (human TLR8)
"CCCCc1nc2c(N)nc3cc(C)sc3c2n1CC1CCNCC1 [Compound 3, 2-butyl-7-methyl-1-(piperidin-4-ylmethyl)-1H-imidazo[4,5-d]thieno[3,2-b]pyridine-4-amine]",470,1.43,strong activation effect,19400,1.86,strong activation effect
"CCCCc1nc2c(N)nc3ccsc3c2n1CC1CCN(C)CC1 [Compound 27, 2-butyl-1-[(1-methylhexahydropyridin-4-yl)methyl] thieno[3,2-b]imidazo[4,5-d]pyridine-4-amine]",270,1.59,strong activation effect,11900,0.84,strong activation effect
"CCCCc1nc2c(N)nc3ccsc3c2n1CCCCN [Compound 2, 1-(4-aminobutyl)-2-butyl-1H-imidazo[4,5-d]thieno[3,2-b]pyridine-4-amine]",280,1.36,strong activation effect,8830,1.37,strong activation effect
"CCCCc1nc2c(N)nc3cc(C)sc3c2n1CCCCN [Compound 1, 1-(4-aminobutyl)-2-butyl-7-methyl-1H-imidazo[4,5-d]thieno[3,2-b]pyridine-4-amine]",220,1.36,strong activation effect,5830,1.43,strong activation effect
"CCCCc1nc2c(N)nc3cc(C4CCOCC4)sc3c2n1CC1CCN(C)CC1 [Compound 40, 2-butyl-1-((1-methylpiperidin-4-yl)methyl)-7-(tetrahydro-2H-pyran-4-yl)-1H-imidazo[4,5-d]thieno[3,2-b]pyridine-4-amine]",580,1.83,strong activation effect,,,
"CCCCc1nc2c(N)nc3cc(C4CCN(C)CC4)sc3c2n1CC1CCN(C)CC1 [Compound 38, 2-butyl-7-(1-methylpiperidin-4-yl)-1-((1-methylpiperidin-4-yl)methyl)-1H-imidazo[4,5-d]thieno[3,2-b]pyridine-4-amine]",1300,0.49,strong activation effect,,,
"CCCCc1nc2c(N)nc3cc(C)sc3c2n1CC1CCN(C)CC1 [Compound 28, 2-butyl-7-methyl-1-((1-methylpiperidin-4-yl)methyl)-1H-imidazo[4,5-d]thieno[3,2-b]pyridine-4-amine]",200,1.39,strong activation effect,,,
"CCCCc1nc2c(N)nc3cc(C4CCN(C)CC4)sc3c2n1CC1CCN(CCOC)CC1 [Compound 42, 2-butyl-1-{[1-(2-methoxyethyl)hexahydropyridin-4-yl]methyl}-7-(1-methylhexahydropyridin-4-yl)thieno[3,2-b]imidazo[4,5-d]pyridine-4-amine]",1430,0.65,strong activation effect,,,
"CCCCc1nc2c(N)nc3cc(C4CCN(C(C)=O)CC4)sc3c2n1CC1CCOCC1 [Compound 59, 1-{4-[4-amino-2-butyl-1-(3,4,5,6-tetrahydro-2H-pyran-4-ylmethyl)thieno[3,2-b]imidazo[4,5-d]pyridin-7-yl]hexahydropyridin-1-yl}ethyl-1-one]",40,1.45,strong activation effect,,,
"CCOCc1nc2c(N)nc3ccsc3c2n1CCCCN [Compound 5, 1-(4-aminobutyl)-2-(2-ethoxymethyl)-1H-imidazo[4,5-d] thieno[3,2-b]pyridine-4-amine]",3250,1.46,strong activation effect,,,
"CCCCc1nc2c(N)nc3cc(C)sc3c2n1CC1CCN(C(=O)CCOCCOCCN)CC1 [Compound 17, 1-(4-((4-amino-2-butyl-7-methyl-1H-imidazo[4,5-d]thieno[3,2-b]pyridin-1-yl)methyl)piperidin-1-yl)-3-(2-(2-aminoethoxy)ethoxy)propan-1-one]",1160,2.23,strong activation effect,,,
